Source: patent US11013235B2 (priority 2015, dated 2021)
Where two headings read alike, the source gives them in different places.

How the values were obtained:
Format in all cases: in vivo
[1] = test system: Candidatus 'Liberibacter asiaticus'; conditions: spraying every 15 days, 12 months after treatment, Citrus sinensis with HLB
Phytophthora parasitica = assay: Control of Phytophthora parasitica disease in tobacco (Pp-Nt); conditions: 1 μM spraying every 24 hours for one week, water control 91
Protocol: (§1) In order to compare the effect of the compounds of formula I to V on the control of diseases in different plants, experiments were conducted in tobacco, tomato and Arabidopsis thaliana plants inoculated with Phytophthora parasitica, Rhizoctonia solani, Alternaria solani, Nocardia sp and Botrytis cinerea, respectively. The compounds were applied by spraying, at a concentration of 1 μM, every 24 hours for one week. The plant mortality rate was determined for the disease produced by Phytophthora parasitica, Rhizoctonia solani and Nocardia sp, while the percentage of leaves with symptoms was determined for the infection by Alternaria solani. In the case of plants affected by Botrytis cinerea, the lesion diameter was measured. […] Each treatment included fifty plants. As control, plants treated with water were studied. The plants of each treatment were previously inoculated with the indicated pathogens, according to different inoculation protocols (Frontiers in Plant Science 3: 268, 1-6, 2012), and later they were treated with the compounds.

Rhizoctonia solani [2] = assay: Control of Rhizoctonia solani disease in tobacco (Rs-Nt); conditions: 1 μM spraying every 24 hours for one week, water control 87
Protocol: as §1

Nocardia sp = assay: Control of Nocardia sp disease in tobacco (N-Nt); conditions: 1 μM spraying every 24 hours for one week, water control 58
Protocol: as §1

Rhizoctonia solani [3] = assay: Control of Rhizoctonia solani disease in tomato (Rs-SI); conditions: 1 μM spraying every 24 hours for one week, water control 96
Protocol: as §1

Alternaria solani = assay: Control of Alternaria solani disease in tomato (As-SI); conditions: 1 μM spraying every 24 hours for one week, water control 68
Protocol: as §1

Botrytis cinerea [4] = assay: Control of Botrytis cinerea disease in Arabidopsis (Bc-At); conditions: 1 μM spraying every 24 hours for one week, water control 8.7
Protocol: as §1

Botrytis cinerea [5] = assay: Control of Botrytis cinerea disease in tobacco (Bc-Nt); conditions: 1 μM spraying every 24 hours for one week, water control 6.7
Protocol: as §1

Botrytis cinerea [6] = assay: Control of Botrytis cinerea disease in tomato (Bc-SI); conditions: 1 μM spraying every 24 hours for one week, water control 7.4
Protocol: as §1

Radopholus similis = assay: Nematode control, nodules per plant: Radopholus similis; conditions: 1 μM foliar application every 5 days, evaluation 35 days after, control 45
Protocol: (§2) The solutions of the compounds were prepared in ethanol and diluted in water, up to a concentration of 1 μM for a foliar application. Applications were conducted every 5 days, spraying only the leafs with each compound. Ten plants were used for each treatment and the final evaluation was performed 35 days after, by quantifying the number of nodules per plant.

Meloidogyne incognita = assay: Nematode control, nodules per plant: Meloidogyne incognita; conditions: 1 μM foliar application every 5 days, evaluation 35 days after, control 34
Protocol: as §2

Pratylenchus coffeae = assay: Nematode control, nodules per plant: Pratylenchus coffeae; conditions: 1 μM foliar application every 5 days, evaluation 35 days after, control 42
Protocol: as §2

Structure (SMILES) | Titers of the bacterium ([1]; 0.001 μM) | Titers of the bacterium ([1]; 0.01 μM) | Titers of the bacterium ([1]; 1 μM) | Titers of the bacterium ([1]; 5 μM) | Titers of the bacterium ([1]; 10 μM) | Pp-Nt: percentage of mortality (Phytophthora parasitica) | Rs-Nt: percentage of mortality (Rhizoctonia solani [2]) | N-Nt: percentage of mortality (Nocardia sp) | Rs-SI: percentage of mortality (Rhizoctonia solani [3]) | As-SI: percentage of leaves with the disease symptoms (Alternaria solani) | Bc-At: mean of the diameter of the lesion (Botrytis cinerea [4]) | Bc-Nt: mean of the diameter of the lesion (Botrytis cinerea [5]) | Bc-SI: mean of the diameter of the lesion (Botrytis cinerea [6]) | Rs: number of nodules per plant (Radopholus similis) | Mi: number of nodules per plant (Meloidogyne incognita) | Pc: number of nodules per plant (Pratylenchus coffeae)
Cc1c(CCC(=O)NCC(O)CO)c(=O)oc2cc3occ(C4CCCC4)c3cc12 (centres unmarked) [IK, 3-{6-cyclopentyl-4-methyl-2-oxo-2H-furo[3,2-g]chromen-3-yl}-N-(2,3-dihydroxypropyl)propanamide] | 435 copies per reaction | 0 copies per reaction | 0 copies per reaction | 45 copies per reaction | 6521 copies per reaction | 0% | 0% | 1% | 2% | 8% | 2.4 mm | 1.5 mm | 0.8 mm | 0 | 0 | 15
CC(O)C(O)CN1CCC(Oc2ccc(C(=O)N3CCC(C4CCCCC4)C3)cc2)CC1 (centres unmarked) [IVF, 1-(4-{4-[(3-cyclohexylpyrrolidin-1-yl)carbonyl]phenoxy}piperidin-1-yl)butane-2,3-diol] | 657 copies per reaction | 0 copies per reaction | 0 copies per reaction | 67 copies per reaction | 8654 copies per reaction | 0% | 0% | 1% | 2% | 8% | 1.5 mm | 1.5 mm | 2.5 mm | 0 | 0 | 17
Cc1nc(N2CCN(C3CCCCC3)CC2)ncc1C(=O)N1CC2CC(O)C(O)CC2C1 (centres unmarked) [IIIF, 2-{[2-(4-cyclohexylpiperazin-1-yl)-4-methylpyrimidin-5-yl]carbonyl}-octahydro-1H-isoindole-5,6-diol] | 658 copies per reaction | 5 copies per reaction | 4 copies per reaction | 68 copies per reaction | 3654 copies per reaction | 0% | 0% | 0% | 1% | 5% | 1.5 mm | 1.5 mm | 2.5 mm | 0 | 0 | 0
CC(O)C(O)CN1CCC(Oc2ccc(C(=O)N3CCC(C4CCCC4)C3)cc2)CC1 (centres unmarked) [IVH, 1-(4-{4-[(3-cyclopentylpyrrolidin-1-yl)carbonyl]phenoxy}piperidin-1-yl)butane-2,3-diol] | 756 copies per reaction | 0 copies per reaction | 0 copies per reaction | 76 copies per reaction | 1351 copies per reaction | 0% | 0% | 0% | 1% | 5% | 0.7 mm | 0.9 mm | 1.2 mm | 0 | 0 | 0
O=C(c1cnc(N2CCNCC2)nc1)N1CC2CC(O)C(O)CC2C1 (centres unmarked) [IIII, 2-{[2-(piperazin-1-yl)pyrimidin-5-yl]carbonyl}-octahydro-1H-isoindole-5,6-diol] | 435 copies per reaction | 9 copies per reaction | 8 copies per reaction | 45 copies per reaction | 8654 copies per reaction | 2% | 3% | 1% | 2% | 2% | 1.2 mm | 0.3 mm | 0.8 mm | 2 | 3 | 12
Cc1c2c(oc(=O)c1CC(=O)NCC(O)CO)C=CC1C(C3CCCCC3)=COC21 (centres unmarked) [IIJ, 2-{5-cyclohexyl-13-methyl-11-oxo-3,10-dioxatricyclo[7.4.0.0^{2,6}]trideca-1(9),4,7,12-tetraen-12-yl)-N-(2,3-dihydroxypropyl)acetamide] | 435 copies per reaction | 1 copies per reaction | 1 copies per reaction | 45 copies per reaction | 6541 copies per reaction | 1% | 4% | 2% | 2% | 3% | 0.7 mm | 0.9 mm | 1.2 mm | 12 | 4 | 2
CN1c2cc(C(=O)NC3CCCC3)ccc2OCC1CC(=O)NC(CO)CO (centres unmarked) [VH, N-cyclopentyl-3-{[(1,3-dihydroxypropan-2-yl)carbamoyl]methyl}-4-methyl-3,4-dihydro-2H-1,4-benzoxazine-6-carboxamide] | 658 copies per reaction | 4 copies per reaction | 0 copies per reaction | 68 copies per reaction | 6541 copies per reaction | 2% | 3% | 1% | 2% | 2% | 0.7 mm | 0.9 mm | 1.2 mm | 2 | 3 | 1
CC1CCN(C(=O)c2ccc(OC3CCN(CC(O)C(C)O)CC3)cc2)C1 (centres unmarked) [IVB, 1-(4-{4-[(3-methylpyrrolidin-1-yl)carbonyl]phenoxy}piperidin-1-yl)butane-2,3-diol] | 432 copies per reaction | 8 copies per reaction | 4 copies per reaction | 43 copies per reaction | 3574 copies per reaction | 3% | 0% | 0% | 1% | 7% | 0.7 mm | 0.9 mm | 1.2 mm | 3 | 0 | 0
